Common to all, as to format: binding
Experiment [1] addresses T1, BRD4 (Homo sapiens, UniProt O60885). Briefly: BromoKd affinity assay (Eurofins Discovery).
The target of experiment [2] is T2, BRD3 (Homo sapiens, UniProt Q15059). As to the kind of experiment: BromoKd affinity assay (Eurofins Discovery).
The target in experiment [3] is T3, BRD2 (Homo sapiens, UniProt P25440). As to the kind of experiment: BromoKd affinity assay (Eurofins Discovery). Further details: second bromodomain BD2, BRD2(2).
Target sequence in this assay (P25440 344-453 limits assumed): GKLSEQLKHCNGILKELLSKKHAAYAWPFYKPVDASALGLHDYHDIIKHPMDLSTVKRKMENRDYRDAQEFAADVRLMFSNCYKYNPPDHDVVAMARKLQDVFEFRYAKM
The target in experiment [4] is T3, BRD2. Briefly: BromoKd affinity assay (Eurofins Discovery); cellular degradation competed by HPI-1.
Target sequence in this assay (P25440 whole entry): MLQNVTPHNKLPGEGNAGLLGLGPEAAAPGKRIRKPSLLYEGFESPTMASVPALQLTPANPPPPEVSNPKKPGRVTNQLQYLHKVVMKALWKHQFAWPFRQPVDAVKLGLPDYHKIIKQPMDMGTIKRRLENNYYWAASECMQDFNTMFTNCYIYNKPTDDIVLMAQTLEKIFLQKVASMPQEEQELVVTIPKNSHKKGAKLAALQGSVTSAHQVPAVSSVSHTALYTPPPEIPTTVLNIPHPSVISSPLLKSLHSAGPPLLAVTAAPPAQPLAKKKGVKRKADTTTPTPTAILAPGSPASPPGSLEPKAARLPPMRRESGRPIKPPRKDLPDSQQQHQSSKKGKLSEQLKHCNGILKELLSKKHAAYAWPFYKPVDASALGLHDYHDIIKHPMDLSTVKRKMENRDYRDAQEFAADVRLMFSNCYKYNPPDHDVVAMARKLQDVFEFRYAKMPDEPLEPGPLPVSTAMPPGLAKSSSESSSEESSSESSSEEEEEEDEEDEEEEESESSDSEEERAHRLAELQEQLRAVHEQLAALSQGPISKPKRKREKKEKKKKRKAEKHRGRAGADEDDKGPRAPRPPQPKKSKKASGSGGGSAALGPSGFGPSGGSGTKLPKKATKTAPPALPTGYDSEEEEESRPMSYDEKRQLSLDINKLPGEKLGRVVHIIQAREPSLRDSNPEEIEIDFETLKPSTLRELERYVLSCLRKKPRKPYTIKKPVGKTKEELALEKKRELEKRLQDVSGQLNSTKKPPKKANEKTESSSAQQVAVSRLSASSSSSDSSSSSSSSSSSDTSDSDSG
Experiment [5] concerns the target T1, BRD4. The experiment is described as above.
Experiment [6] addresses T2, BRD3. The experiment is described as above.

T2 sequence (Q15059 2-726): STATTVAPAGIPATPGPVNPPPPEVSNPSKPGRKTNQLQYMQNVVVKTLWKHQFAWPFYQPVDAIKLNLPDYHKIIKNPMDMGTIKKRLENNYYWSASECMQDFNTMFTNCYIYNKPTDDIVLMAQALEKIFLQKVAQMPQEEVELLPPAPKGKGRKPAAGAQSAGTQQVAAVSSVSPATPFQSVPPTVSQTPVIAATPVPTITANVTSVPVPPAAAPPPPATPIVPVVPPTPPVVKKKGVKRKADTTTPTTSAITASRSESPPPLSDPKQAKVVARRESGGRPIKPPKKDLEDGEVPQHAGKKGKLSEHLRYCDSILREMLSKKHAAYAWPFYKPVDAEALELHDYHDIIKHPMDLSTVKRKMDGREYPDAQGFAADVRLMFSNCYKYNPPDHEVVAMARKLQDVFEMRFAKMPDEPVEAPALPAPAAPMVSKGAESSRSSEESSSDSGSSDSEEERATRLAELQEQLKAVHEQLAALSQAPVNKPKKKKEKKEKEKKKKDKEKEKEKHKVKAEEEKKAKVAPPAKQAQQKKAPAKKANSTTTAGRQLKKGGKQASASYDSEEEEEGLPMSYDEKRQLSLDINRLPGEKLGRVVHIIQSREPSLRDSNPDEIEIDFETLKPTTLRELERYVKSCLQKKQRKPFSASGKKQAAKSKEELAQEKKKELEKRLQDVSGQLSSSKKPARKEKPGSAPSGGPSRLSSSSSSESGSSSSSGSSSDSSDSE

On to `COCCOC(=O)C1=C(C)NC2=C(C(=O)CC(c3ccccc3OC)C2)C1c1cccc(O)c1` (stereo not drawn) [HPI-1], for which the dissociation constant (Kd) (usually the free concentration of one partner at which half of the binding sites on the other are occupied at equilibrium, for simple one-to-one binding) on BRD4 [1] was about 15 nM; at BRD3 [2], about 15 nM; at BRD2 [3] it was 17 nM.
As for `COCCOC(=O)C1=C(C)NC2=C(C(=O)CC(c3ccccc3OC)C2)C1c1cccc(OCc2cn(CCCCCCOc3cccc4c3C(=O)N(C3CCC(=O)NC3=O)C4=O)nn2)c1` (stereo not drawn) [HPP-9], the Kd on BRD2 [4], on BRD4 [5] and at BRD3 [6] was about 200 nM throughout.

Source of the values: article PMC10314895, “Targeted protein degradation reveals BET bromodomains as the cellular target of Hedgehog pathway inhibitor-1” (Nature Communications, 2023).
